Data as given in BindingDB's records for patent US20230271949 (Ascletis Bioscience, 2023).
pEC50: −log10 of the molar value.

Molecular target: Glucagon-like peptide 1 receptor (Homo sapiens, UniProt P43220)
Experiment: GLP-1R agonist cAMP stimulation Assay
From the text: cAMP Detection Kit, Cisbio (Cat #62AM4PEJ).

Glucagon-like peptide 1 receptor, sequence (P43220 whole entry): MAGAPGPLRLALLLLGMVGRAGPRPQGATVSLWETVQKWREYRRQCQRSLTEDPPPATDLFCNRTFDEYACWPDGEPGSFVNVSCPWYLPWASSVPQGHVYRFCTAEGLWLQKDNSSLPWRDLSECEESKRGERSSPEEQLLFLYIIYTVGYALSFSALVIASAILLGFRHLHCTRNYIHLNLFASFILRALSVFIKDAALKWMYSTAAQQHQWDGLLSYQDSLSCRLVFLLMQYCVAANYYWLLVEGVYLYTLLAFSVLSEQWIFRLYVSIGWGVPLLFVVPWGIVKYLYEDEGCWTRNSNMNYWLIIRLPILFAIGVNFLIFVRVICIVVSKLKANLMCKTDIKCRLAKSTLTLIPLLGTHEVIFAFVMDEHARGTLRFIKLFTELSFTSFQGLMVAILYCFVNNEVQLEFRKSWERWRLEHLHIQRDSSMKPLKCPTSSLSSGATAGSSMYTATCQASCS

- pEC50: 9.72
Compound: Cc1coc2c(COc3cccc(C4=CCN(Cc5nc6cc(C(=O)Nc7cc(F)c8c(c7)C7(CC7)C(=O)N8)ccc6n5C[C@@H]5CCO5)CC4)n3)ccc(C#N)c12 [US20230271949, Example 351]
